Assays:
GLP-1R = GLP-1R (Homo sapiens, UniProt P43220); assay: GLP-1R activation: cAMP increase in CHO cells stably expressing GLP-1R; type: cell-based; settings: cAMP increase, CHO cells stably expressing GLP-1R, 10 point dose response, 30 minutes incubation; read-out: EC50
[1] = Microsomal stability, human liver microsomes (predicted hepatic clearance); settings: predicted from in vitro microsomal stability data

Sequence of GLP-1R (P43220 24-463): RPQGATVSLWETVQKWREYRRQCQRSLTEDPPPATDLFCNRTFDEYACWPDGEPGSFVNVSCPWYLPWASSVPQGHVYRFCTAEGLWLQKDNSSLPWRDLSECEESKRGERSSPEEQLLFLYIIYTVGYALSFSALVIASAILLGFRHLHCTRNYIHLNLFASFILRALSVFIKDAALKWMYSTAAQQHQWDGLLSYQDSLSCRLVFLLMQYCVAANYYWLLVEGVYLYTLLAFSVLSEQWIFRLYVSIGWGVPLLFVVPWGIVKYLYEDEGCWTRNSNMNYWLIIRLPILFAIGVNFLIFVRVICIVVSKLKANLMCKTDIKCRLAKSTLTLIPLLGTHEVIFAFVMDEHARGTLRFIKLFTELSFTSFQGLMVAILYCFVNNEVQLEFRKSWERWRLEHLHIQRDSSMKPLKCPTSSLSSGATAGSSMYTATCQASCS

Compound | EC50 (GLP-1R) [nM] | Predicted Hepatic Clearance (Pred. Cl.) [1] [mL/min/kg]
N#CCC1(Cn2c(Cc3cc(F)c(-c4ccnc(OCc5ccc(C#N)cc5F)n4)cc3F)nc3ccc(C(=O)O)nc32)CC1 [Example 400, 2-(4-(2-((4-cyano-2-fluorobenzyl)oxy)pyrimidin-4-yl)-2,5-difluorobenzyl)-3-((1-(cyanomethyl)cyclopropyl)methyl)-3H-imidazo[4,5-b]pyridine-5-carboxylic acid] | 0.47 | <1.83
COCCn1c(Cc2ccc(-c3cccc(OCc4ccc(C#N)cc4F)n3)cc2CO)nc2ccc(C(=O)O)cc21 [Example 425, 2-(4-(6-((4-cyano-2-fluorobenzyl)oxy)pyiridn-2-yl)-2-(hydroxymethyl)benzyl)-1-(2-methoxyethyl)-1H-benzo[d]imidazole-6-carboxylic acid] | 4.29 | 6.7
COCCn1c(Cc2ccc(-c3cccc(OCc4ccc(C#N)cc4OC)n3)cc2F)nc2ccc(C(=O)O)cc21 [Example 243, 2-(4-(6-((4-cyano-2-methoxybenzyl)oxy)pyridin-2-yl)-2-fluorobenzyl)-1-(2-methoxyethyl)-1H-benzo[d]imidazole-6-carboxylic acid] | 0.88 | 10.2
O=C(O)c1ccc2nc(Cc3cc(F)c(-c4cccc(OCc5ccc(C(F)(F)F)cc5)n4)cc3F)n(C[C@@H]3CCO3)c2c1 [Example 517, (S)-2-(2,5-difluoro-4-(6-((4-(trifluoromethyl)benzyl)oxy)pyridin-2-yl)benzyl)-1-(oxetan-2-ylmethyl)-1H-benzo[d]imidazole-6-carboxylic acid] | 0.06 | <1.83
N#Cc1ccc(COc2cccc(-c3cc(F)c(Cc4nc5ccc(C(=O)O)cc5n4C[C@@H]4COCCO4)cc3F)n2)c(F)c1 [Example 642] | 5.14 | 2.67
N#Cc1ccc(COc2cccc(-c3cc(F)c(Cc4nc5ccc(C(=O)O)cc5n4CCOCC(F)F)cc3F)n2)c(F)c1 [Example 828] | 3.5 | 8.5
COCCn1c(Cc2ccc(-c3cccc(OCc4ccc(C#N)cc4F)c3)cc2F)nc2ccc(C(=O)O)cc21 [Example 6, 2-((3′-((4-cyano-2-fluorobenzyl)oxy)-3-fluoro-[1,1′-biphenyl]-4-yl)methyl)-1-(2-methoxyethyl)-1H-benzo[d]imidazole-6-carboxylic acid] | 56.1 | 3.5
COCCn1c(Cc2c(F)cc(-c3cccnc3OCc3ccc(C#N)cc3OC)cc2F)nc2ccc(C(=O)O)cc21 [Example 118, 2-(4-(2-((4-cyano-2-methoxybenzyl)oxy)pyridin-3-yl)-2,6-difluorobenzyl)-1-(2-methoxyethyl)-1H-benzo[d]imidazole-6-carboxylic acid] | 6.01 | 12
COCCn1c(Cn2c(C)cc(-c3cccc(OCc4ccc(C#N)cc4F)n3)cc2=O)nc2ccc(C(=O)O)cc21 [Example 437, 2-((6-((4-cyano-2-fluorobenzyl)oxy)-6′-methyl-2′-oxo-[2,4′-bipyridin]-1′(2′H)-yl)methyl)-1-(2-methoxyethyl)-1H-benzo[d]imidazole-6-carboxylic acid] | 69.8 | 2.67
N#Cc1ccc(COc2cccc(-c3ccn(Cc4nc5ccc(C(=O)O)cc5n4C[C@@H]4CCO4)c(=O)c3)n2)c(F)c1 [Example 423, (S)-2-((6-((4-cyano-2-fluorobenzyl)oxy)-2′-oxo-[2,4′-bipyridin]-1′(2′H)-yl)methyl)-1-(oxetan-2-ylmethyl)-1H-benzo[d]imidazole-6-carboxylic acid] | 4.12 | <1.83
CCn1cnnc1Cn1c(Cc2cc(F)c(-c3cccc(OCc4ccc(C(F)F)cc4F)n3)cc2F)nc2ccc(C(=O)O)cc21 [Example 678] | 0.88 | 4.17
